Legend:
CDK4 = biological target: T1, CDK4 (Homo sapiens, UniProt P11802); assay: CDK4 Inhibition Assay; format: biochemical; conditions: CDK4 kinase, 33P-ATP, CTRF substrate
T1 construct: purchased Proqinase 0142-0373-1
Procedure: All ligands, radiolabels, solvents, and reagents employed in the following assays are readily available from commercial sources, or can be readily synthesized by one skilled in the art.
10 μL of test compound in 20% DMSO, 20 μL of adenosine 5′-triphosphate (ATP) and C-Terminal Retinoblastoma Fragment (CTRF) (Upstate cat # 12-439) solution, and 10 μL of enzyme solution are mixed in a 96 well plate. The ATP and CRTF solution is prepared from a mixture of 40 μM ATP, 0.16 μCi [^33P] ATP and 1 μM CTRF diluted in kinase buffer of 68 mM 4-(2-hydroxyethyl)-1-piperazineethanesulfonic acid (HEPES) pH 7.4, 6.72 mM MgCl2, 6.72 mM dithiothreitol (DTT), and 0.013% TRITON™ X-100. The enzyme solution is prepared from 8 ng CDK4 enzyme (Proqinase cat # 0142-0373-1) diluted in the kinase buffer described above. Test compounds are serially diluted 1:3 in 20% DMSO to create a 10 point curve at a starting concentration of 20 μM. 20% DMSO buffer alone without added test compound is employed as a control, 500 mM ethylene diamine tetraacetic acid (EDTA) is used to determine the level of background ^33P in the absence of enzyme activity. Reagents are mixed and incubated for 90 min at 20° C. […] The wells are washed four times with 0.5% H3PO4 and the radioactivity incorporated is determined with a microplate scintillation counter (Microbeta Trilux, Wallac). […]

[1] = tested on: phosphorylation of Retinoblastoma Protein (pRb); assay: Inhibition of Phosphorylation of Retinoblastoma Protein (pRb) in COLO 205 cells; format: cell-based; conditions: Homo sapiens, 24 h exposure, read-out: IC50 (% phosphoRB positive)
Procedure: COLO 205 Cells from the American Type Culture Collection (ATCC) are plated at 2000 cells/well in 96 well […] BIOCOAT™ plates, and are incubated in RPMI 1640 medium (e.g., GIBCO, catalog #52400-025) with 10% Fetal Bovine Serum (FBS e.g. Gibco cat #11000-144) and 1% sodium pyruvate (Gibco catalog #11360-070) in 37° C., 5% CO2 for 24 h. Cells are treated by adding test compound to the medium, dosing at 10 points of 1:3 dilutions across the range of 20 μM to 0.001 μM, and with final DMSO concentration at 0.25%. After 24 h exposure to the compounds, cells are fixed with the PREFER™ fixative [Anatech LTD., Cat # 414] for 30 min at RT, then are permeabilized with 0.1% TRITON® X100 in phosphate buffered saline (PBS) solution for 15 min at RT. […] Fluorescence plates are scanned with ACUMEN EXPLORER™ [Laser-scanning fluorescence microplate cytometer (comprising of 488 nm argon ion laser excitation and multiple photomultiplier tube detection), manufactured by TTP LABTECH LTD] to measure phosphorylation of Rb protein and DNA content. […] Assay outputs are percentage of each identified subpopulations, % phosphoRB positive, % 2 N and % 4 N. The IC50 and EC50 values are determined by curve fitting to a four parameter logistic for each output using ACTIVITY BASE™. […]

Pim-1 = Pim-1 (Homo sapiens, UniProt P11309); assay: Assay for Inhibition of PIM1 Kinase; format: biochemical
Pim-1, sequence (P11309 whole entry): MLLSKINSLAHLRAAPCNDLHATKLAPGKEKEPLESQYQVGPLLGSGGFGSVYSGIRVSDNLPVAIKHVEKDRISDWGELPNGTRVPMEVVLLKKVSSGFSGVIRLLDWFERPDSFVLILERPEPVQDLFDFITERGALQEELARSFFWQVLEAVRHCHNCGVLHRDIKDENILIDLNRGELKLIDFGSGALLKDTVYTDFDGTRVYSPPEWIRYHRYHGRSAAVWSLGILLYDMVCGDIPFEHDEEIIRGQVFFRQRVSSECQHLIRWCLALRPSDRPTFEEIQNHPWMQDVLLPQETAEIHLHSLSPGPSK
Procedure: Pim-1 (human, 0.46 nM final concentration) is incubated with 8 mM MOPS pH 7.0, 0.2 mM EDTA, 100 μM of an appropriate substrate peptide (see Pim-1 kinase inhibition assay protocol as described in Chen, L. S. et al. (2009) Blood, DOI: 10.1182/blood-2009-03-212852), 10 mM MgAcetate and [γ-^33P-ATP] (specific activity approx. 500 cpm/pmol, concentration as required). The reaction is initiated by the addition of the MgATP mix and then incubated for 40 minutes at room temperature. The reaction is stopped by the addition of 3% phosphoric acid solution. 10 μL of the reaction is then spotted onto a P30 filtermat and washed three times for 5 minutes in 75 mM phosphoric acid and once in methanol prior to drying and scintillation counting. For compound inhibition testing, compounds provided as 10 mM stocks in 100% DMSO are diluted 1:10 in 100% DMSO to give a 50× stock of the top concentration of the curve. The 50× stock is then serially diluted 1:3 in 100% DMSO to create a 10 point concentration-response curve and diluted 1:50 (20 μM to 0.001 μM final in 2% final DMSO concentration) in the reaction mixture to determine compound activity. […] The percent inhibition determined from the controls on each plate and ten-point compound concentration data were then fit to a four-parameter logistic equation using ACTIVITYBASE 4.0. […]

[2] = Rat Oral Bioavailability Assay; format: in vivo; conditions: plasma, 1 mg/kg, male Sprague Dawley rats, oral suspension vs intravenous, read-out: Fraction bioavailable relative to the intravenous dose (% F)
Procedure: Male Sprague Dawley rats (body weight range 250-320 g) with indwelling femoral arterial cannulae are obtained from Charles River, Wilmington, Mass. 01887, USA. Test compound is administered intravenously in solution (2 mL/kg) in: 10% N-methyl pyrollidone/18% Captisol® in 22.5 mM phosphate buffer, pH 3. The final drug concentration is 0.25 mg/mL (free base equivalents). Blood samples are obtained using the indwelling cannula over 24 h. The animals are then administered an oral dose of test compound in suspension (5 mL/kg) in 1% w/v hydroxyethylcellulose/0.25% v/v polysorbate 80/0.05% v/v antifoam in purified water. The final drug concentration is 0.2 mg/mL (free base equivalents). […]
An internal standard compound (for normalisation) in acetonitrile/methanol (1:1, v/v) is added to samples of plasma to precipitate protein and the samples are centrifuged prior to analysis. The supernatants are analysed by injection and rapid gradient elution on a Javelin Betasil C18 column (20×2.1 mm cartridge, Mobile phase A: Water/1 M ammonium bicarbonate, 2000:10 v/v, Mobile Phase B: MeOH/1 M ammonium bicarbonate, 2000:10 v/v). The eluted analytes are detected by LC-MS-MS analysis using a Sciex API 4000 triple quadrupole mass spectrometer. Concentrations of compounds in plasma are determined from standards prepared under identical conditions. […]

T1 sequence (P11802 whole entry): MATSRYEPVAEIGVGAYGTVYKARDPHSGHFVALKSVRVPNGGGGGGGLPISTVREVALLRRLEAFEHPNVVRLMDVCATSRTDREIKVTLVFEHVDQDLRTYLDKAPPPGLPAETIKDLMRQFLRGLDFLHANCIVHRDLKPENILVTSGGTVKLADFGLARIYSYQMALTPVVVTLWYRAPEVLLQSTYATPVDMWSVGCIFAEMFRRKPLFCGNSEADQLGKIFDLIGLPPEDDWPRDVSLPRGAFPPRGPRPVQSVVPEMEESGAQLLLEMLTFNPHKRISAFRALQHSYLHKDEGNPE
T1 sequence (P30281 whole entry partner): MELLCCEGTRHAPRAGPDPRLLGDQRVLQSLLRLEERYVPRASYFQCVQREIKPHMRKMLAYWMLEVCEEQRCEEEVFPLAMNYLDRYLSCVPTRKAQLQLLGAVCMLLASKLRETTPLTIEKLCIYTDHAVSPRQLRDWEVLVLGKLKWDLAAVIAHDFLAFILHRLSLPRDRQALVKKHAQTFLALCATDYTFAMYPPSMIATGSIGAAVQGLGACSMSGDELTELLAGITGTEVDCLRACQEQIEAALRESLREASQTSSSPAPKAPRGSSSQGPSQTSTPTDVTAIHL

CCN1CCC(Cc2ccc(Nc3ncc(F)c(-c4cc(F)c5nc(C)n(C(C)C)c5c4)n3)nc2C)CC1 [Example 25, [5-(1-Ethyl-piperidin-4-ylmethyl)-6-methyl-pyridin-2-yl]-[5-fluoro-4-(7-fluoro-3-isopropyl-2-methyl-3H-benzoimidazol-5-yl)-pyrimidin-2-yl]-amine methanesulfonate]
IC50 (CDK4): 3 nM
IC50 [1]: ~100 nM
IC50 (Pim-1): 3 nM

CS(=O)(=O)O.Cc1nc2ccc(-c3nc(Nc4ccc(C5CCN(C(C)C)CC5)cn4)ncc3F)cc2n1C1CCCC1 [Example 22, [4-(3-Cyclopentyl-2-methyl-3H-benzoimidazol-5-yl)-5-fluoro-pyrimidin-2-yl]-(1′-isopropyl-1′,2′,3′,4′,5′,6′-hexahydro-[3,4′]bipyridinyl-6-yl)-amine methanesulfonate]
bioavailability [2]: 48.5%

Reference: US7855211B2, “Protein kinase inhibitors” (Eli Lilly and Company, priority 2008, dated 2010)
